In patent US20230277533A1, “THERAPEUTIC COMBINATIONS COMPRISING UBIQUITIN-SPECIFIC-PROCESSING PROTEASE 1 (USP1) INHIBITORS AND POLY (ADP-RIBOSE) POLYMERASE (PARP) INHIBITORS” (KSQ Therapeutics, Inc., priority 2020, published 2023):
Where two headings read alike, the source gives them in different places.

What was measured:
[1] = 90-day rat study; cited from earlier work
[2] = system: HCC1569; assay: Colony formation (CFU) assay; format: cell-based; conditions: Homo sapiens; HCC1569, breast
In short: (§1)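 Six-well, density pre-set for interspersed colonies at ~14 d. Media + DMSO/USP1 inhibitor/niraparib/olaparib changed d8. Fix/stain 0.1% crystal violet in 10% EtOH, 20 min RT; elute 10% AcOH, A565. Two-parameter Hill fit → IC50.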

[3] = system: GOTO; assay: Colony formation (CFU) assay; format: cell-based; conditions: nervous system
In short: as §1

[4] = system: ES2; assay: Colony formation (CFU) assay; format: cell-based; conditions: Homo sapiens, ES-2; ES2, ovary
In short: as §1

[5] = system: OVSAHO; assay: Colony formation (CFU) assay; format: cell-based; conditions: Homo sapiens, ovary
In short: as §1

[6] = system: A2780; assay: Colony formation (CFU) assay; format: cell-based; conditions: Homo sapiens; A2780, ovary
In short: as §1

[7] = system: HBCx9; assay: Colony formation (CFU) assay; format: cell-based; conditions: HBCx9, breast
In short: as §1

[8] = system: HBCx6; assay: Colony formation (CFU) assay; format: cell-based; conditions: HBCx6, breast
In short: as §1

[9] = system: HSC2; assay: Colony formation (CFU) assay; format: cell-based; conditions: Homo sapiens, HSC-2; HSC2, head and neck
In short: as §1

[10] = system: SKOV3_OR1a1null; assay: Colony formation (CFU) assay; format: cell-based; conditions: ovary
In short: as §1

[11] = system: TGBC1TKB; assay: Colony formation (CFU) assay; format: cell-based; conditions: biliary tract
In short: as §1

[12] = system: KS1; assay: Colony formation (CFU) assay; format: cell-based; conditions: KS1, nervous system
In short: as §1

[13] = system: HUO9; assay: Colony formation (CFU) assay; format: cell-based; conditions: HUO9, bone
In short: as §1

[14] = system: RT11284; assay: Colony formation (CFU) assay; format: cell-based; conditions: Homo sapiens, RT112/84; RT11284, bladder
In short: as §1

[15] = system: 647V; assay: Colony formation (CFU) assay; format: cell-based; conditions: Homo sapiens, bladder
In short: as §1

[16] = system: CAPAN1; assay: Colony formation (CFU) assay; format: cell-based; conditions: Homo sapiens, CAPAN-1; CAPAN1, pancreas
In short: as §1

[17] = system: TE5; assay: Colony formation (CFU) assay; format: cell-based; conditions: Homo sapiens, TE-5; TE5, esophagus
In short: as §1

[18] = system: HT115; assay: Colony formation (CFU) assay; format: cell-based
In short: as §1

[19] = system: SCC25; assay: Colony formation (CFU) assay; format: cell-based; conditions: Homo sapiens, SCC-25; SCC25, head and neck
In short: as §1

[20] = system: 59M; assay: Colony formation (CFU) assay; format: cell-based; conditions: ovary
In short: as §1

[21] = system: HS888T; assay: Colony formation (CFU) assay; format: cell-based; conditions: bone
In short: as §1

[22] = system: U2OS; assay: Colony formation (CFU) assay; format: cell-based; conditions: Homo sapiens, bone
In short: as §1

[23] = system: HBCx2; assay: Colony formation (CFU) assay; format: cell-based; conditions: HBCx2, breast
In short: as §1

[24] = system: ASPC1; assay: Colony formation (CFU) assay; format: cell-based; conditions: Homo sapiens; ASPC1, pancreas
In short: as §1

[25] = system: LU99; assay: Colony formation (CFU) assay; format: cell-based; conditions: Homo sapiens, Lu-99; LU99, lung
In short: as §1

[26] = system: CTG-0253 ovarian PDX; assay: CTG-0253 patient-derived ovarian xenograft model; format: in vivo; conditions: Formula I 100, 300 mg/kg; Olaparib 100 mg/kg; combination 100 + 100 mg/kg; oral qd 18 days
Method: Anti-tumor activity of the USP1 inhibitor, Formula I co-crystal in combination with Olaparib was evaluated in mice using three patient-derived ovarian xenograft models in nude mice. 6-8 week old female athymic nude mice from Engivo were anesthetized and a 60 mm^3 tumor fragment was placed subcutaneously via incision in the flank. When tumors reached a tumor volume ranging from approximately 100 to 180 mm^3, mice were randomized into groups of 3-4 mice and were assigned into the following groups: control (vehicle), Formula I (100 mg/kg), Formula I (300 mg/kg), Olaparib (100 mg/kg) or Formula I (100 mg/kg) and Olaparib (100 mg/kg) combination. Compound was administered via oral gavage once daily for 18 days (days 0 to 17). Body weight and tumor volume were measured twice per week. Tolerability was assessed by calculating body weight changes as percent (%) from body weight on day of treatment start (day 0). Tumor volume was calculated as mean and standard error of the mean for each treatment group. A tumor regression (REG) was defined as a tumor with a smaller volume on the last day of the study as compared to the first day of dosing, and a complete regression (CR) was defined as no palpable tumor at the end of the study.

Row | SMILES | IC50 [2] [nM] | IC50 [3] [nM] | IC50 [4] [nM] | IC50 [5] [nM] | IC50 [6] [nM] | IC50 [7] [nM] | IC50 [8] [nM] | IC50 [9] [nM] | IC50 [10] [nM] | IC50 [11] [nM] | IC50 [12] [nM] | IC50 [13] [nM] | IC50 [14] [nM] | IC50 [15] [nM] | IC50 [16] [nM] | IC50 [17] [nM] | IC50 [19] [nM] | IC50 [20] [nM] | IC50 [21] [nM] | IC50 [22] [nM] | further results
1 | NC(=O)c1cccc2cn(-c3ccc([C@@H]4CCCNC4)cc3)nc12 [Niraparib, niraparib, reference compound] | 97.3 | 22.4 | > 300 | > 300 | > 300 | 55.8 | 30.4 | > 300 | > 300 | > 300 | > 300 | > 300 | > 300 | 96.7 | 185 | > 300 | > 300 | 63.4 | > 300 | > 300 | toxicity findings [1]: Niraparib caused early deaths due to bone marrow toxicity observed in; IC50 ([18]; HT115): 15.6 nM; IC50 [23]: > 300 nM; IC50 [24]: > 300 nM; IC50 [25]: 88.6 nM
2 | COc1ncnc(C2CC2)c1-c1ncc2cnn(Cc3ccc(-c4nc(C(F)(F)F)cn4C(C)C)cc3)c2n1 [Formula I, 6-(4-cyclopropyl-6-methoxypyrimidin-5-yl)-1-(4-(1-isopropyl-4-(trifluoromethyl)-1H-imidazol-2-yl)benzyl)-1H-pyrazolo[3,4-d]pyrimidine] | – | – | – | – | – | – | – | – | – | – | – | – | – | – | – | – | – | – | – | – | anti-tumor activity [26]: none
3 | COc1ncnc(C2CC2)c1-c1ncc2cnn(Cc3ccc(-c4nc(C(F)(F)F)cn4C)cc3)c2n1 [Formula II, 6-(4-cyclopropyl-6-methoxypyrimidin-5-yl)-1-(4-(1-methyl-4-(trifluoromethyl)-1H-imidazol-2-yl)benzyl)-1H-pyrazolo[3,4-d]pyrimidine] | > 300 | > 300 | 27.5 | > 300 | > 300 | > 300 | > 300 | > 300 | > 300 | > 300 | > 300 | > 300 | > 300 | 33.9 | > 300 | > 300 | > 300 | 34.9 | > 300 | > 300 | IC50 ([18]; HT115, colon, read-out: IC50): 150 nM; IC50 [23]: > 300 nM; IC50 [24]: > 300 nM; IC50 [25]: 35.4 nM
